This assay has as its target T1, human V1aR (Homo sapiens, UniProt P37288).
T1 construct: expressed in transfected cells
As to the kind of experiment: Agonist activity at vasopressin V1a receptors, cell-based FLIPR calcium assay. Conditions: for Emax: read-out: Efficacy Avg. (%). Here is the method:
Efficacy (% MPE) is also determined as the percentage of maximal possible effect. This agonist assay utilizes cells from a stable cell line (HEK-flpin) expressing the vasopressin V1a receptor. Intracellular calcium increase in response to agonist is measured through real-time fluorescence of an intracellular calcium-sensitive dye. Cells are exposed to varying concentrations of test agonist compounds whereupon release of intracellular calcium is measured to determine the agonist potency and efficacy.
The cell line stably expresses the lacZ-Zeocin™ fusion gene and is designed for use with the Flp-In™ expression vector containing the gene of interest and the Flp recombinase expression plasmid, pOG44. The cell line contains a single integrated Flp Recombination Target (FRT) site from pFRT/lacZeo or pFRT/lacZeo2. To generate the HEK-flpin cell line stably expressing the human V1aR, the cells were co-transfected with the Flp-In™ expression vector containing the gene of interest (pcDNA5/FRT-hV1aR) and the Flp recombinase expression plasmid pOG44. Flp recombinase mediates insertion of the Flp-In™ expression vector into the genome at the integrated FRT site through site-specific DNA recombination. Stable cell lines expressing the hV1aR from the Flp-In™ expression vector can be generated by selection using hygromycin B. See Life Technologies/Invitrogen manual, Growth and Maintenance of Flp-In™ Cell Lines, Version E, published Feb.
Efficacy of this compound was set to be 100%. A stock solution of 5 mM was made up in DMSO and stored at −20° C.
HEK-flpin-hV1aR, cmcqV1aR, dV1aR and pV1aR cells were maintained in DMEM containing 10% (v/v) FBS-HI, 4 mM GlutaMAX™-I, 25 μg/mL Hygromycin B at 37° C. under 5% CO2 in a humidified atmosphere. Subculture was achieved by splitting semi-confluent cultures 1:3 to 1:6.
All compounds were made up in 100% DMSO at 10 mM stock concentrations and stored at −20° C. The compounds were allowed to thaw just before the assay. […] Typical dilution procedure of 10× final assay concentration involved a 1:100 top dilution (e.g., 2 μl Stock into 198 μl dilution medium) followed by half-log serial dilutions (e.g., 25.3 μl into 54.7 μl dilution medium supplemented with 1% DMSO (v/v)). (Dilution media consisted of phenol-red free DMEM containing 10% FBS-HI, 4 mM GlutaMAX™-I). […] The final DMSO concentration in the assay was 0.1%.
Loading Buffer was prepared by dissolving 1 vial of Calcium 4 Assay reagent in 100 mL of 1× HBSS-20 mM Hepes buffer.
The cells were loaded with Loading Buffer as follows. Cell plates were removed from the incubator and 20 μl of Loading Buffer containing probenecid (2.5 mM) was added to each well. The cells were incubated for 1 hr at 37° C. under 5% CO2 in a humidified atmosphere. The calcium image was obtained as follows.
The cell plates were transferred to FLIPR Tetra, along with a 384 well V-bottom plate pre-loaded with half-log concentrations of test compounds at 10× final test concentrations. The remaining steps of the assay were carried forward by FLIPR Tetra. A baseline reading was taken at 1-second (s) intervals for 5s followed by the addition of 5 μl of 10× compounds (test, reference, or Blank). The agonist-induced fluorescence signal was then measured for 180 s with initial 120 readings at 1-second intervals followed by 20 readings at 3-second intervals. Overall, each well in the FLIPR assay was composed of the following components in a total volume of 50 μl: 20 μl cells; 20 μl Calcium 4 Loading Buffer; […] 10× test or reference compound.

Where [1] appears, read: HEK-flpin cells stably expressing hV1aR, intracellular calcium fluorescence, averaged, read-out: EC50 (Avg).

Like-named read-outs stand apart in the source and are kept apart here. Starred links: 1 amine or outer side, 2 acyl side, 3 side chain; linkers in the order of their positions; H or OH if unused. Positions of bridges follow the written chain, without caps; N, C: chain ends. Non-standard residues stand in square brackets, D forms with d. Residues, ends and D or L forms follow the SMILES beside them. Chains are numbered I, II in the order given. *: point of attachment. d(isoGln) = NC(=O)[C@@H](CCC(=O)[*:2])N[*:1]; isoGln = NC(=O)[C@H](CCC(=O)[*:2])N[*:1]; εLys = N[C@@H](CCCCN[*:1])C(=O)[*:2]; Dab = NCC[C@H](N)C(=O)O; PhAc = O=C(Cc1ccccc1)*

Drawing on US20160122386A1, “V1A RECEPTOR AGONISTS” (FERRING B.V., priority 2014, published 2016), this text covers EC50 and Emax for six compounds.

The EC50 is the concentration that produces a half-maximal response.

T1 sequence (P37288 whole entry): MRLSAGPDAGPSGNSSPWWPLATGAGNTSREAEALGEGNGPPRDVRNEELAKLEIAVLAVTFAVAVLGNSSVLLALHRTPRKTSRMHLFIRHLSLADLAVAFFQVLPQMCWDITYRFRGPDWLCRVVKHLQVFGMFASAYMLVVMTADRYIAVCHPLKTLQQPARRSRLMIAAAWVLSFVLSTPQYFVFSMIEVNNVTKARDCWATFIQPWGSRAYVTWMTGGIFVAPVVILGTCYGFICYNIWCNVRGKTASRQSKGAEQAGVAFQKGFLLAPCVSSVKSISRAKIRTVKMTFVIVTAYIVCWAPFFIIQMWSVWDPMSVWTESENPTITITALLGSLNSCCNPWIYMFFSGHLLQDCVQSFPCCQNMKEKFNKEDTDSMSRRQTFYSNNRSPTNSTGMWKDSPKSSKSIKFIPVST

As to `CC[C@H](C)[C@@H]1NC(=O)[C@H](Cc2ccccc2)NC(=O)[C@@H](O)CSSC[C@@H](C(=O)N2CCC[C@H]2C(=O)N[C@@H](CCNC(=O)[C@@H](N)CCCCNC(=O)CC[C@H](NC(=O)[C@H](CCCNC(=N)N)NC(=O)[C@@H]2CCCN2C(=O)[C@H](C)NC(=O)[C@H](CC(N)=O)NC(=O)[C@H](CCC(N)=O)NC(=O)[C@H](Cc2ccccc2)NC(=O)[C@@H](Cc2ccc(OC)cc2)NC(=O)Cc2ccccc2)C(N)=O)C(=O)NCC(N)=O)NC(=O)[C@H](CC(N)=O)NC(=O)[C@H](CCC(N)=O)NC1=O` [Compound 30], the EC50 was 1.1 nM and the Emax is 50%.

In the case of `CC[C@H](C)[C@@H]1NC(=O)[C@H](Cc2ccccc2)NC(=O)[C@@H](N)CSSC[C@@H](C(=O)N2CCC[C@H]2C(=O)N[C@@H](CCCNCCCCCCNC(=O)CC[C@H](NC(=O)[C@H](CCCNC(=N)N)NC(=O)[C@@H]2CCCN2C(=O)[C@H](C)NC(=O)[C@H](CC(N)=O)NC(=O)[C@H](CCC(N)=O)NC(=O)[C@H](Cc2ccccc2)NC(=O)[C@@H](Cc2ccc(OC)cc2)NC(=O)Cc2ccccc2)C(N)=O)C(=O)NCC(N)=O)NC(=O)[C@H](CC(N)=O)NC(=O)[C@H](CCC(N)=O)NC1=O` [Compound 4], the EC50 was 1.5 nM and the Emax was found to be 24%.

Consider `CC[C@H](C)[C@@H]1NC(=O)[C@H](Cc2ccccc2)NC(=O)[C@@H](N)CSSC[C@@H](C(=O)N2CCC[C@H]2C(=O)N[C@@H](CCCNCCCCCCNC(=O)CC[C@H](NC(=O)[C@H](CCCNC(=N)N)NC(=O)[C@@H]2CCCN2C(=O)[C@H](C)NC(=O)[C@H](CC(N)=O)NC(=O)[C@H](CCC(N)=O)NC(=O)[C@H](Cc2ccccc2)NC(=O)[C@@H](Cc2ccc(OC)cc2)NC(=O)CC(C)C)C(N)=O)C(=O)NCC(N)=O)NC(=O)[C@H](CC(N)=O)NC(=O)[C@H](CCC(N)=O)NC1=O` [Compound 21], for which the Emax amounted to 47%. The EC50 under setting [1] amounted to 1.5 nM.

For `CC[C@H](C)[C@@H]1NC(=O)[C@H](Cc2ccccc2)NC(=O)[C@@H](N)CSSC[C@@H](C(=O)N2CCC[C@H]2C(=O)N[C@@H](CCCNCCCCCCNC(=O)CC[C@H](NC(=O)[C@H](CCCNC(=N)N)NC(=O)[C@@H]2CCCN2C(=O)[C@H](C)NC(=O)[C@H](CC(N)=O)NC(=O)[C@H](CCC(N)=O)NC(=O)[C@H](Cc2ccccc2)NC(=O)[C@@H](Cc2ccc(OC)cc2)NC(=O)C2CCCCC2)C(N)=O)C(=O)NCC(N)=O)NC(=O)[C@H](CC(N)=O)NC(=O)[C@H](CCC(N)=O)NC1=O` [Compound 19], the Emax stood at 50%. Further, the EC50 under setting [1] was 2.5 nM.

In the case of `CC[C@H](C)[C@@H]1NC(=O)[C@H](Cc2ccccc2)NC(=O)[C@@H](N)CSSC[C@@H](C(=O)N2CCC[C@H]2C(=O)N[C@@H](CCNC(=O)[C@@H](N)CCCCNC(=O)CC[C@H](NC(=O)[C@H](CCCNC(=N)N)NC(=O)[C@@H]2CCCN2C(=O)[C@H](CCCNC(=N)N)NC(=O)[C@H](CC(N)=O)NC(=O)[C@H](CCC(N)=O)NC(=O)[C@@H](NC(=O)[C@@H](Cc2ccc(OC)cc2)NC(=O)Cc2ccccc2)[C@@H](C)CC)C(N)=O)C(=O)NCC(N)=O)NC(=O)[C@H](CC(N)=O)NC(=O)[C@H](CCC(N)=O)NC1=O` [Compound 36] (I: H-CFIQNCP[Dab]G-NH2 / II: PhAc-[dY](Me)IQNRPR[isoGln][εLys]; disulfide I:1-I:6; amide I:8-II:C), the EC50 turned out to be 1.2 nM and the Emax was 46%.

Regarding `CC[C@H](C)[C@@H]1NC(=O)[C@H](Cc2ccccc2)NC(=O)[C@@H](N)CSSC[C@@H](C(=O)N2CCC[C@H]2C(=O)N[C@@H](CCNC(=O)[C@@H](N)CCCCNC(=O)CC[C@@H](NC(=O)[C@H](CCCNC(=N)N)NC(=O)[C@@H]2CCCN2C(=O)[C@H](C)NC(=O)[C@H](CC(N)=O)NC(=O)[C@H](CCC(N)=O)NC(=O)[C@H](Cc2ccccc2)NC(=O)[C@@H](Cc2ccc(OC)cc2)NC(=O)Cc2ccccc2)C(N)=O)C(=O)NCC(N)=O)NC(=O)[C@H](CC(N)=O)NC(=O)[C@H](CCC(N)=O)NC1=O` [Compound 54] (I: H-CFIQNCP[Dab]G-NH2 / II: PhAc-[dY](Me)FQNAPR[d(isoGln)][εLys]; disulfide I:1-I:6; amide I:8-II:C), the EC50 was 1.4 nM and the Emax came out at 51%.
